Patent US6593342B1, “Pharmaceutical compositions comprising 2-quinolones” (Laboratoire L. Lafon, priority 1998, dated 2003)

System: clonogenic cells
Experiment: Clonogenic test, overall statement
Format: cell-based
Details: in words
Excerpt: 1—Interaction (Stimulation or Inhibition of Proliferation) With the Generation of Clonogenic Cells (Clonogenic Test)
The test used is that described by Hamburger et al. (Science, 1977; 197, 461-463) and Salmon et al. (New England J. Med., 298, 1321-1327). A cell is considered clonogenic if it has the capacity to proliferate and to give rise to a cell colony. “Human tumor stem cells” are the cells which are the source of the neoplastic cells which constitute a given tumor. These tumor stem cells are responsible for the relapse processes which may be observed after surgical resection of primary tumors and are also responsible for the formation of metastases. […]
The influence of the compounds of formulae (I) and (Ia) on the growth of the cell colonies obtained by culturing, for example, the mammalian tumor lines MCF7 and MXT and the colorectal line HT-29 on the semi-liquid culture medium known as “soft agar” was measured. […]
The tumor cell lines studied are maintained in culture in 25 cm^2 falcon dishes. […] The percentage of live cells is determined after staining with trypan blue. […] After fixing for 24 hours, the formalin is evaporated off and the number of stained cell colonies, thus consisting of metabolically active cells, and whose surface area is greater than 100 μm^2, is determined using an inverted microscope. […]

Compound	effect on the average number of clones of clonogenic cells relative to the reference situation
CCN(CC)C(=O)CCn1c(=O)c(-c2ccc(OC)cc2)cc2c(OC)cc(OC)cc21 [CRL8283, N,N-Diethyl-3-[5,7-dimethoxy-3-(4-methoxy-phenyl)-2-oxo-1,2-dihydro-1-quinolinyl]propanamide]	reduce
CCN(CC)C(=O)Cn1c(=O)c(-c2ccc(OC)cc2)cc2c(OC)cc(OC)cc21 [CRL8315, N,N-Diethyl-2-[5,7-dimethoxy-3-(4-methoxy-phenyl)-2-oxo-1,2-dihydro-1-quinolinyl]acetamide]	increase
